Assay results as given in a melting point compilation (Tetko et al.; mined from patent text by program, amines drawn as free bases though some values may be those of a salt).

First: CCn1c(=O)n(C2OC(CO)C(O)C2O)c2nc(N)[nH]c(=O)c21 (configuration not stated)
Second: Nc1nc2[nH]c(CCCCCc3ccc(C(=O)N[C@@H](CCC(=O)O)C(=O)O)s3)cc2c(=O)[nH]1
The melting point of the first is higher: 185 to 187 °C for the first, 181 to 182 °C for the second.

First: O=C(NC(CO)(CO)CO)c1cc2ccnc(Cl)c2[nH]1
Second: O=C(NCCn1ccnc1)c1cc2cc(Cl)ccc2[nH]1
The melting point of the first is higher: 218 to 220 °C for the first, 167 to 169 °C for the second.

Compared with `O=C(Nc1ccnc(C(=O)NO)c1)c1ccccc1`, `COc1ccc(OCC(=O)c2ccccc2)c([N+](=O)[O-])c1` is lower in melting point: 175 to 184 °C for the first, 88 to 90 °C for the second.

First: CC(C)c1ccc2oc(C(O)COc3ccc(C(=O)O)cc3)cc2c1 (configuration not stated)
Second: CC(C)c1ccc2c(c1)OC1(O)c3ccccc3C(=O)C21O (configuration not stated)
The melting point of the first is lower: 148 to 150 °C for the first, 195 to 198 °C for the second.

First: Cc1[nH]n(C2CCCC2C)c2nc(-c3ccncc3)nc(=O)c1-2 (configuration not stated)
Second: CCN1C(=O)C(NC(=O)C(F)(F)F)CCc2c1ccc(Nc1ncc(Cl)c(N[C@H]3[C@@H](C(N)=O)[C@@H]4C=C[C@H]3C4)n1)c2OC (some centres not stated)
The melting point of the first is higher: 290 to 291 °C for the first, 167 to 176 °C for the second.

Compared with `CC(C)C(C(=O)O)c1ccc(O)cc1` (configuration not stated), `O=C(O)C(Cc1ccc(O)cc1)NC(=O)C(CS)C(F)(F)F` (configuration not stated) is higher in melting point: 172 to 174 °C for the first, 184 to 187 °C for the second.

First: CCOCc1c(C)nc2c3cccc(Cl)c3ccn12
Second: Cc1sc(NS(=O)(=O)c2cccc(Cl)c2C)nc1CC(=O)N1CCOCC1
The melting point of the first is lower: 94 to 96 °C for the first, 194 to 195 °C for the second.

Compared with `CC1Nc2ccc(-c3ccc(C#N)[nH]3)cc2C(C)(C)O1` (configuration not stated), `COc1cc(-c2cc3ccccc3[nH]2)ccc1OS(C)(=O)=O` is lower in melting point: 201 to 202 °C for the first, 194 °C for the second.

First: COC(=O)c1ccc(C(=S)Nc2ccccc2OC)cc1
Second: Cc1ccc(NC(=O)C2C(=O)N(C)c3ccccc3S2(=O)=O)cc1 (configuration not stated)
The melting point of the first is lower: 105 to 107 °C for the first, 218 to 220 °C for the second.

First: COC(=O)CS(=O)(=O)CCCCCn1nc(-c2ccccc2)c(-c2ccccc2)c1-c1ccccc1
Second: O=C(CC(=O)c1ccc(O)cc1O)c1cc(OCc2ccccc2)cc(OCc2ccccc2)c1
The melting point of the first is lower: 102 °C for the first, 179 to 181 °C for the second.

First: CSC(N)=C(CCN1CCC(c2noc3cc(F)ccc23)CC1)[N+](=O)[O-]
Second: NC(=O)c1c(C(=O)O)cnn1-c1cccc(F)c1
The melting point of the first is lower: 150 to 154 °C for the first, 215 to 216 °C for the second.

First: CC(=O)N(c1cccc(Br)c1)c1ncnc2ccc(N3C(=O)C=CC3=O)cc12
Second: COc1cccc(Cc2ccc(-c3cnn4c(O)ccnc34)cc2)c1
The melting point of the first is lower: 174 to 175 °C for the first, 246 to 249 °C for the second.

First: O=C(O)C1CC1(C(=O)O)c1ccc([N+](=O)[O-])cc1 (configuration not stated)
Second: O=Cc1ccc(OC2CCCC2)c2oc3ccc([N+](=O)[O-])cc3c12
The melting point of the first is lower: 138 to 144 °C for the first, 230 to 240 °C for the second.

First: COC(=O)c1sccc1Nc1ccc(F)cc1[N+](=O)[O-]
Second: COC(=O)CNc1cccc(Br)c1
The melting point of the first is higher: 172 to 175 °C for the first, 66 to 68 °C for the second.

Compared with `CCOC(=O)c1nnc2ccc(NC(=O)NC(Cc3ccccc3)C(=O)OC)cc2c1O` (configuration not stated), `O=C(O)c1ccccc1Nc1ccc(CCCCc2ccc(Cl)c(Cl)c2)cc1` is lower in melting point: 242 to 243 °C for the first, 98 to 105 °C for the second.

Compared with `CC(C(=O)O)c1ccc2c(c1)CCc1ccccc1S2` (configuration not stated), `CN1CCc2nc3ccc(Cl)cc3c(Nc3ccccc3)c2C1` is higher in melting point: 103 to 104 °C for the first, 137 to 139 °C for the second.

First: CCOC(=O)c1nc2sc(C(C)C)cc2c(=O)o1
Second: Cc1noc(NS(=O)(=O)c2cc3ccccc3s2)c1C
The melting point of the first is lower: 87.5 to 88.5 °C for the first, 157 to 160 °C for the second.

First: CNC(=O)[C@@H]1C[C@H](SCc2ccc(OC)cc2)CN1C
Second: COc1cc2c(cc1OC)CN(CCCc1ccc(NC(=O)c3cc4ccccc4cn3)cc1)CC2
The melting point of the first is lower: 82 to 84 °C for the first, 146 °C for the second.

First: N#Cc1nn(-c2c(Cl)cc(OC(F)(F)F)cc2Cl)c(N)c1I
Second: Nc1ccc(-c2noc(-c3cnn4c(C(F)F)cc(-c5ccc(Cl)c(Cl)c5)nc34)n2)cn1
The melting point of the first is lower: 150 °C for the first, 279 °C for the second.

Compared with `CON=C(C)C1=CCCN(O)C1`, `COc1ccccc1CC(O)(c1ccccc1)C1CCN(CCCC(=O)c2ccc(C(C)(C)C)cc2)CC1` (configuration not stated) is higher in melting point: 94 to 96 °C for the first, 118 to 120 °C for the second.

First: O=S1(=O)c2sccc2C=C(CO)N1CCO
Second: Cc1oc(-c2cccs2)nc1COc1ccc(CCCCn2ccnc2)cc1
The melting point of the first is lower: 81 to 83 °C for the first, 85 to 86 °C for the second.

Compared with `CC(=O)OC1CSC(Sc2ccc(C(=O)C(F)(F)F)cc2)C(OC(C)=O)C1OC(C)=O` (configuration not stated), `CCCCN1CCN(CCNC(=O)c2nn(C(C)C)c3ccccc23)CC1` is lower in melting point: 143 to 148 °C for the first, 82 to 84 °C for the second.

First: C[Si](C)(C)C#Cc1cc(Cl)cnc1N
Second: O=C(Nc1ccc2ccc(Cl)nc2n1)c1ccc(Cl)c(Cl)c1
The melting point of the first is lower: 108 °C for the first, 230 °C for the second.

`Fc1cc(F)c2c(c1)CCC(n1cc[nH]c1=S)C2` (configuration not stated) and `O=c1[nH]c2cc(N3CCCC3)c(F)cc2c(=O)n1O` cannot be ordered by melting point: 260 to 261 °C for the first, over 250 °C for the second.

First: CCCCc1ncc(/C=C(\Cc2ccc(C)s2)c2nnn[nH]2)n1Cc1ccccc1Cl
Second: Fc1ccccc1COc1cccnc1NC(=S)Nc1ccc(Cl)cc1
The melting point of the first is higher: 151 to 153 °C for the first, 141 °C for the second.

Compared with `Oc1c(Cc2ccccc2)nc(Cc2ccccc2)c2c1COC2`, `Nc1ccc(CS(=O)(=O)Nc2ccccc2)cc1` is lower in melting point: 204 to 205 °C for the first, 180 to 182 °C for the second.
